From ChEMBL document CHEMBL5500404, “Discovery and Development of NLRP3 Inhibitors Targeting the LRR Domain to Disrupt NLRP3-NEK7 Interaction for the Treatment of Rheumatoid Arthritis” (J Med Chem, 2024)
Active and inactive are the calls of the source. The rule behind the calls is not given here.

Tests used:
[1] = AUC (0 to infinity) in Sprague-Dawley rat at 20 mg/kg, ip measured upto 720 mins by LC-MS/MS analysis; type: ADME, organism-based; conditions: in vivo, 12 h
[2] = Cmax in Sprague-Dawley rat at 20 mg/kg, IG measured upto 1440 mins by LC-MS/MS analysis; type: ADME, organism-based; conditions: in vivo, po
[3] = AUC (0 to infinity) in Sprague-Dawley rat at 20 mg/kg, IG measured upto 1440 mins by LC-MS/MS analysis; type: ADME, organism-based; conditions: in vivo, po
Rattus norvegicus [4] = experiment: (§1) Anti-inflammatory activity against complete Freund's adjuvant (CFA)-induced arthritis rat model assessed as decrease in thymus index at 20 to 80 mg/kg, ip treated after 17 days of CFA challenge measured after 18 days (day 17 to 34) relative to model group; type: functional, organism-based; conditions: dose 20-80 mg/kg, time 18.0 day
[5] = molecular target: T1, Interferon-inducible protein AIM2 (Homo sapiens) (UniProt O14862); experiment: Inhibition of AIM2 inflammasome in poly(DA:DT)-induced human THP-M cells assessed as inhibition of IL-1beta level at 20 to 60 uM pretreated for 24 hrs followed by stimulated with LPS by ELISA; type: cell-based; conditions: dose 20-60 µM
T1 sequence (whole entry): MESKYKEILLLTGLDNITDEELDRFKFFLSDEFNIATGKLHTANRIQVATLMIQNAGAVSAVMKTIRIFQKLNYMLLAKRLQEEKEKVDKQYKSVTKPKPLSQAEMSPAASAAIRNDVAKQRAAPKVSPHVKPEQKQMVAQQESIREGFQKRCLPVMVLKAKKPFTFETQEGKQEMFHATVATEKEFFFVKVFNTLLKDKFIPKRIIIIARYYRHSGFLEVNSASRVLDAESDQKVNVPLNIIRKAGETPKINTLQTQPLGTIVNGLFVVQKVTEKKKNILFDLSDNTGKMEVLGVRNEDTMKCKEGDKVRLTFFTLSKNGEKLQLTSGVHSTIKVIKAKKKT

[6] = Apparent volume of distribution during terminal phase in Sprague-Dawley rat at 20 mg/kg, IG measured upto 1440 mins by LC-MS/MS analysis; type: ADME, organism-based; conditions: in vivo, po, read-out: Vz/F
Rattus norvegicus [7] = experiment: Anti-inflammatory activity against complete Freund's adjuvant (CFA)-induced arthritis rat model assessed as reduction in body weight at 20 to 80 mg/kg, ip treated after 17 days of CFA challenge measured after 18 days (day 17 to 34) relative to control; type: functional, organism-based; conditions: dose 20-80 mg/kg, time 18.0 day
THP-M [8] = experiment: Reduction of reactive oxygen species production in human THP-M cells pretreated for 24 hrs followed by stimulated with LPS for 3 hrs and ATP for 1 hr by Mitochondrial damage experiment; type: functional, cell-based; conditions: time 28.0 hrs
[9] = Half life in Sprague-Dawley rat at 20 mg/kg, ip measured upto 720 mins by LC-MS/MS analysis; type: ADME, organism-based; conditions: in vivo
[10] = MRT (0 to infinity) in Sprague-Dawley rat at 20 mg/kg, IG measured upto 1440 mins by LC-MS/MS analysis; type: ADME, organism-based; conditions: in vivo, po
[11] = molecular target: NLR family CARD domain-containing protein 4 (Homo sapiens) (UniProt Q9NPP4); experiment: Inhibition of NLRC4 inflammasome in flagellin of Salmonella typhimurium-induced human THP-M cells assessed as inhibition of IL-1beta level at 20 to 60 uM pretreated for 24 hrs followed by stimulated with LPS by ELISA; type: cell-based; conditions: dose 20-60 µM
[12] = AUC (0 to t) in Sprague-Dawley rat at 20 mg/kg, ip measured upto 720 mins by LC-MS/MS analysis; type: ADME, organism-based; conditions: in vivo
[13] = MRT (0 to infinity) in Sprague-Dawley rat at 20 mg/kg, ip measured upto 720 mins by LC-MS/MS analysis; type: ADME, organism-based; conditions: in vivo
Rattus norvegicus [14] = experiment: as §1, with “reduction” for “decrease”, “IL-1beta in rat synovium from the left rear ankle” for “thymus index”, “34) by immunohistochemistry based assay” for “34)”; type: functional, organism-based; conditions: dose 20-80 mg/kg, time 18.0 day
Rattus norvegicus [15] = experiment: Anti-inflammatory activity against complete Freund's adjuvant (CFA)-induced arthritis rat model assessed as recovery in degree of swelling in left hind paw at 20 to 80 mg/kg, ip treated after 17 days of CFA challenge measured after 18 days (day 17 to 34) relative to control; type: functional, organism-based; conditions: dose 20-80 mg/kg, time 18.0 day
[16] = Apparent volume of distribution during terminal phase in Sprague-Dawley rat at 20 mg/kg, ip measured upto 720 mins by LC-MS/MS analysis; type: ADME, organism-based; conditions: in vivo, read-out: Vz/F
THP-M [17] = experiment: Inhibition of NLRP3 and […] protein-protein interaction in human THP-M cells assessed as suppression activation of NLRP3 inflammasome by affecting ASC oligomerization at 10 to 50 uM pretreated for 24 hrs followed by stimulated with LPS for 3 hrs and ATP for 1 hr by co-IP analysis; type: cell-based; conditions: dose 10-50 µM, time 28.0 hrs
[18] = Tmax in Sprague-Dawley rat at 20 mg/kg, IG measured upto 1440 mins by LC-MS/MS analysis; type: ADME, organism-based; conditions: in vivo, po
[19] = AUC (0 to t) in Sprague-Dawley rat at 20 mg/kg, IG measured upto 1440 mins by LC-MS/MS analysis; type: ADME, organism-based; conditions: in vivo, po
[20] = Apparent clearance during terminal phase in Sprague-Dawley rat at 20 mg/kg, IG measured upto 1440 mins by LC-MS/MS analysis; type: ADME, organism-based; conditions: in vivo, po
Rattus norvegicus [21] = experiment: Anti-inflammatory activity against complete Freund's adjuvant (CFA)-induced arthritis rat model assessed as decrease in spleen size at 20 to 80 mg/kg, ip treated after 17 days of CFA challenge measured after 18 days (day 17 to 34) relative to model group; type: functional, organism-based; conditions: dose 20-80 mg/kg, time 18.0 day
THP-M [22] = experiment: Effect on transcription of NLRP3 in LPS-induced human THP-M cells assessed as NLRP3 mRNA expression at 10 to 50 uM pretreated for 24 hrs followed by stimulated with LPS for 4 hrs by qRT-PCR analysis; type: functional, cell-based; conditions: dose 10-50 µM, time 28.0 hrs
[23] = MRT (0 to t) in Sprague-Dawley rat at 20 mg/kg, ip measured upto 720 mins by LC-MS/MS analysis; type: ADME, organism-based; conditions: in vivo
[24] = Half life in Sprague-Dawley rat at 20 mg/kg, IG measured upto 1440 mins by LC-MS/MS analysis; type: ADME, organism-based; conditions: in vivo, po
Rattus norvegicus [25] = experiment: Anti-inflammatory activity against complete Freund's adjuvant (CFA)-induced arthritis rat model assessed as decrease in serum IL-1beta level at 20 to 80 mg/kg, ip treated after 17 days of CFA challenge measured after 18 days (day 17 to 34) by ELISA relative to model group; type: functional, organism-based; conditions: dose 20-80 mg/kg, time 18.0 day
Rattus norvegicus [26] = experiment: as §1, with “reduction” for “decrease”, “NLRP3 in rat synovium from the left rear ankle” for “thymus index”, “34) by immunohistochemistry based assay” for “34)”; type: functional, organism-based; conditions: dose 20-80 mg/kg, time 18.0 day
Rattus norvegicus [27] = experiment: Anti-inflammatory activity against complete Freund's adjuvant (CFA)-induced arthritis rat model assessed as decrease in thymus size at 20 to 80 mg/kg, ip treated after 17 days of CFA challenge measured after 18 days (day 17 to 34) relative to model group; type: functional, organism-based; conditions: dose 20-80 mg/kg, time 18.0 day
Rattus norvegicus [28] = experiment: Anti-inflammatory activity against complete Freund's adjuvant (CFA)-induced arthritis rat model assessed as decrease in spleen index at 20 to 80 mg/kg, ip treated after 17 days of CFA challenge measured after 18 days (day 17 to 34) relative to model group; type: functional, organism-based; conditions: dose 20-80 mg/kg, time 18.0 day

Sequence of NLR family CARD domain-containing protein 4 (Homo sapiens) (Q9NPP4 whole entry, the tested form may be a part): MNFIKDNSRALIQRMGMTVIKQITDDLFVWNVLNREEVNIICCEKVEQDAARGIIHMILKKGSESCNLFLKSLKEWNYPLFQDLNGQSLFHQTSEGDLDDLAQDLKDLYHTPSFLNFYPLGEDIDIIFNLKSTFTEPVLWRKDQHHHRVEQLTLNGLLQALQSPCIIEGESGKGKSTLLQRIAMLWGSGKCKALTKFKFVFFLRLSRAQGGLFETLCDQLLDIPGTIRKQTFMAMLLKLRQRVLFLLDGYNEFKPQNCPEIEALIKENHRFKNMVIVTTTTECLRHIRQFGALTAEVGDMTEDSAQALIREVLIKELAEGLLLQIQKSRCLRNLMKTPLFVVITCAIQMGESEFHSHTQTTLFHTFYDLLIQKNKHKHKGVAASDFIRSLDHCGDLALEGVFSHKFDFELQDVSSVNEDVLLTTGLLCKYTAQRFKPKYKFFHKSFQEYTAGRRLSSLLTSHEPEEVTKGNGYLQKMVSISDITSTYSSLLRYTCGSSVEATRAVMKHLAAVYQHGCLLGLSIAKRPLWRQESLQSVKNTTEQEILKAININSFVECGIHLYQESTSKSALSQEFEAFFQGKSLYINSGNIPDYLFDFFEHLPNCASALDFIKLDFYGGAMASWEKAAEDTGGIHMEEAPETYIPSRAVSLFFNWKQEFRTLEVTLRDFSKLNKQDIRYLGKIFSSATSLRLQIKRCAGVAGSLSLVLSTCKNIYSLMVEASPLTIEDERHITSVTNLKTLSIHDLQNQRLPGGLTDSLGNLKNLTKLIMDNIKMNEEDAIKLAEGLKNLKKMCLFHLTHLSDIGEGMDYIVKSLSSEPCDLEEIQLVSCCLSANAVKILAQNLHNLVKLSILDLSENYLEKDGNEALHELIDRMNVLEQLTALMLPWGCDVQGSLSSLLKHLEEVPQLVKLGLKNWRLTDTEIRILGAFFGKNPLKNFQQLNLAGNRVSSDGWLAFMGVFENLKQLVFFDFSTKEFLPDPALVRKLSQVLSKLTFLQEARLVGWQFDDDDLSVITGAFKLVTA

AUC [1]: 112685 ng·min/mL
Cmax [2]: 448 ng/mL
AUC(0-inf) [3]: 867 ng·h/mL
inhibition [5]: inactive
Vd/F [6]: 73.4 L/kg
half-life [9]: 44.1 min
MRT inf [10]: 162 min
inhibition [11]: inactive
AUC(0-t) at 12 h [12]: 1860 ng·h/mL
MRT inf [13]: 44.5 min
Vd/F [16]: 2.8 L/kg
Tmax [18]: 16.7 min
AUC(0-t) at 24 h [19]: 837 ng·h/mL
CL/F [20]: 410 mL/min/kg
MRT last at 12 h [23]: 41.9 min
half-life [24]: 128 min
SMILES: COCCCNC(=O)c1ccc(Cn2c(SCC3CCCCC3)nc3ccncc32)cc1
Activity (Rattus norvegicus [4]): Active
Activity (Rattus norvegicus [7]): Active
Activity (THP-M [8]): inactive
Activity (Rattus norvegicus [14]): Active
Activity (Rattus norvegicus [15]): Active
inhibition (THP-M [17]): Dose-Dependent Effect
Activity (Rattus norvegicus [21]): Active
Activity (THP-M [22]): inactive
Activity (Rattus norvegicus [25]): Active
Activity (Rattus norvegicus [26]): Active
Activity (Rattus norvegicus [27]): Active
Activity (Rattus norvegicus [28]): Active
